Results from the supplement of paper PMC10307832.

How the values were obtained:
Test in all cases: relative viability (nuclei count vs DMSO), 5 days (fraction); higher = more cells survive
[1] = compound: Cn1c(=O)n(-c2ccc(C(C)(C)C#N)cc2)c2c3cc(-c4cnc5ccccc5c4)ccc3ncc21 [Dactolisib] + Nc1nc2[nH]cc(CCc3ccc(C(=O)N[C@@H](CCC(=O)O)C(=O)O)cc3)c2c(=O)[nH]1 [Pemetrexed] (partner 0.2 µM)
Outline: (§1)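 The day after seeding in 1536-well plates, lung cancer cell lines were treated by pin tool with a single drug, or with a fixed anchor-drug dose together with five library-drug doses (not always all listed) in √10 steps. After 5 days, a combined fix-and-stain solution (final 0.05% Triton X-100, 1% formaldehyde, 1 ug/ml Hoechst) was added. Nuclei counted on 4× images gave relative viability as treated counts over vehicle counts, reported as the median of duplicate plates.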

[2] = compound: Cn1c(=O)n(-c2ccc(C(C)(C)C#N)cc2)c2c3cc(-c4cnc5ccccc5c4)ccc3ncc21 [Dactolisib] + COc1cccc2cc(-c3nc([C@H]4CC[C@H](C(=O)O)CC4)n4ncnc(N)c34)[nH]c12 [OSI-027] (partner 0.5 µM)
Outline: as §1

[3] = compound: Cn1c(=O)n(-c2ccc(C(C)(C)C#N)cc2)c2c3cc(-c4cnc5ccccc5c4)ccc3ncc21 [Dactolisib] + CS(=O)(=O)CCNCc1ccc(-c2ccc3ncnc(Nc4ccc(OCc5cccc(F)c5)c(Cl)c4)c3c2)o1 [Lapatinib] (partner 2 µM)
Outline: as §1

[4] = compound: C1CCC(CC1)N(CCNCCC2=C3C(=C(C=C2)O)NC(=O)CO3)C(=O)CCNCCC4=CC(=C(C=C4)Cl)Cl [AZ505] + COc1cc2c(Oc3ccc(NC(=O)C4(C(=O)Nc5ccc(F)cc5)CC4)cc3F)ccnc2cc1OCCCN1CCOCC1 [Foretinib] (partner 0.25 µM)
Outline: as §1

With COR-L 105 the relative viability ([1]; first compound 0.002 µM) was 1.22, the relative viability ([1]; first compound 0.006325 µM) was 1.25 and the relative viability ([1]; first compound 0.02 µM) was 0.891. For the same cell line, the relative viability ([1]; first compound 0.06325 µM) was 0.892, the relative viability ([1]; first compound 0.2 µM) was 0.356 and the relative viability ([2]; first compound 0.002 µM) was 0.776. The relative viability ([2]; first compound 0.006325 µM) was 0.619, the relative viability ([2]; first compound 0.02 µM) was 0.478 and the relative viability ([2]; first compound 0.06325 µM) was 0.385. The relative viability ([2]; first compound 0.2 µM) was 0.314, the relative viability ([3]; first compound 0.002 µM) was 0.311 and the relative viability ([3]; first compound 0.006325 µM) was 0.355. The relative viability ([3]; first compound 0.02 µM) was 0.363, the relative viability ([3]; first compound 0.06325 µM) was 0.267 and the relative viability ([3]; first compound 0.2 µM) was 0.35. It also gave a relative viability ([4]; first compound 0.08 µM) of 0.76, a relative viability ([4]; first compound 0.253 µM) of 1.29 and a relative viability ([4]; first compound 0.8 µM) of 0.981. The relative viability ([4]; first compound 2.53 µM) was 0.862 and the relative viability ([4]; first compound 8 µM) was 0.903.
Calu-6 gave a relative viability ([3]; first compound 0.002 µM) of 1.18, a relative viability ([3]; first compound 0.006325 µM) of 1.08 and a relative viability ([3]; first compound 0.02 µM) of 0.98. For the same cell line, the relative viability ([3]; first compound 0.06325 µM) was 0.645, the relative viability ([3]; first compound 0.2 µM) was 0.531 and the relative viability ([4]; first compound 0.08 µM) was 0.814. The relative viability ([4]; first compound 0.253 µM) was 0.901, the relative viability ([4]; first compound 0.8 µM) was 0.819 and the relative viability ([4]; first compound 2.53 µM) was 0.799. For the same cell line, the relative viability ([4]; first compound 8 µM) was 0.892.
For ChaGo-K-1, the relative viability ([1]; first compound 0.002 µM) was 0.27, the relative viability ([1]; first compound 0.006325 µM) was 0.261 and the relative viability ([1]; first compound 0.02 µM) was 0.255. It also gave a relative viability ([1]; first compound 0.06325 µM) of 0.256, a relative viability ([1]; first compound 0.2 µM) of 0.247 and a relative viability ([2]; first compound 0.002 µM) of 0.538. It also gave a relative viability ([2]; first compound 0.006325 µM) of 0.528, a relative viability ([2]; first compound 0.02 µM) of 0.571 and a relative viability ([2]; first compound 0.06325 µM) of 0.537. For the same cell line, the relative viability ([2]; first compound 0.2 µM) was 0.609, the relative viability ([4]; first compound 0.08 µM) was 0.936 and the relative viability ([4]; first compound 0.253 µM) was 1.11. It also gave a relative viability ([4]; first compound 0.8 µM) of 0.928, a relative viability ([4]; first compound 2.53 µM) of 0.951 and a relative viability ([4]; first compound 8 µM) of 0.91.
In the case of EBC-1, the relative viability ([3]; first compound 0.002 µM) is reported as 0.237, the relative viability ([3]; first compound 0.006325 µM) is reported as 0.203 and the relative viability ([3]; first compound 0.02 µM) is reported as 0.241. It also gave a relative viability ([3]; first compound 0.06325 µM) of 0.19, a relative viability ([3]; first compound 0.2 µM) of 0.182 and a relative viability ([4]; first compound 0.08 µM) of 0.0937. The relative viability ([4]; first compound 0.253 µM) was 0.0894, the relative viability ([4]; first compound 0.8 µM) was 0.0949 and the relative viability ([4]; first compound 2.53 µM) was 0.0895. The relative viability ([4]; first compound 8 µM) was 0.121.
In the case of EKVX, the relative viability ([1]; first compound 0.002 µM) is reported as 0.248, the relative viability ([1]; first compound 0.006325 µM) is reported as 0.357 and the relative viability ([1]; first compound 0.02 µM) is reported as 0.387. For the same cell line, the relative viability ([1]; first compound 0.06325 µM) was 0.356, the relative viability ([1]; first compound 0.2 µM) was 0.294 and the relative viability ([2]; first compound 0.002 µM) was 0.678. For the same cell line, the relative viability ([2]; first compound 0.006325 µM) was 0.655, the relative viability ([2]; first compound 0.02 µM) was 0.697 and the relative viability ([2]; first compound 0.06325 µM) was 0.536. It also gave a relative viability ([2]; first compound 0.2 µM) of 0.389, a relative viability ([3]; first compound 0.002 µM) of 0.242 and a relative viability ([3]; first compound 0.006325 µM) of 0.189. It also gave a relative viability ([3]; first compound 0.02 µM) of 0.212, a relative viability ([3]; first compound 0.06325 µM) of 0.164 and a relative viability ([3]; first compound 0.2 µM) of 0.129. It also gave a relative viability ([4]; first compound 0.08 µM) of 0.586, a relative viability ([4]; first compound 0.253 µM) of 0.801 and a relative viability ([4]; first compound 0.8 µM) of 0.827. The relative viability ([4]; first compound 2.53 µM) was 0.433 and the relative viability ([4]; first compound 8 µM) was 0.75.
